Data taken from EP1733758A1, “Methods for administration of a farnesyl dibenzodiazepinone” (Ecopia Biosciences Inc., priority 2005, dated 2006).
Read-outs that look alike come from different tables or passages of the source.

Tests used:
[1] = test system: U-87MG cell line; assay: In vitro activity in the U-87MG cell line; type: cell-based; conditions: Homo sapiens
[2] = test system: human prostate tumor (PC3) xenografts; assay: Human PC3 prostate tumor xenograft efficacy; type: in vivo, HRLN male nude mice; conditions: for %T/C: day 38, P< 0.0001
Description: The anticancer activity of the compound of Formula I was further tested in a human PC3 prostate model in mice. HRLN male nude mice (8 weeks of age) were implanted with 1 mm^3 PC3 tumor fragments subcutaneously (SC) in the right flank. Animals were randomized (ten per group) when tumors reach an average size of 80 - 120 mg and treatment began according to the table below. For these studies, the compound of Formula I was formulated in 5% ethanol, 5% PEG-400, 15% Polysorbate 80, and 75% of water containing 5% dextrose.
Tumor measurements were taken twice weekly using callipers and were converted to tumor mass (in milligrams) using the formula: with^2 (mm) x length (mm) x 0.52. Body weights were also recorded twice weekly. Statistical analysis was done using the unpaired two-tailed Student's t test.

[3] = Maximum tolerated dose and tolerability of bolus administration in mice; type: in vivo; conditions: for MTD: mouse, in vivo
[4] = Pharmacokinetics of 14-day continuous intravenous infusion in rats; type: in vivo, Sprague-Dawley rats; conditions: for steady-state plasma concentration / Css / T½z: 14-day CIV; for Css: average of plasma concentration between 30h and 14 days; for T½z: calculated at the end of treatment
Description: (§1) Sprague-Dawley rats received an intravenous continuous infusion over 14 days of Formula I at 25 mg/kg/day, 50 mg/kg/day, or 75 mg/kg/day at a rate of 2 mL/kg/h for 14 consecutive days (same formulation as in Example 7). Blood was collected from the jugular vein in tubes containing K2 EDTA from 3 rats/sex/group at the following time points: 2, 6, and 12 hours after the start of dosing on Day 1, on Day 2 at 6 hours (approximately 30 hours after the start of dosing), on Days 6 and 10 at 6 hours, and on Day 15, 1 hour prior the end of dosing, and then at 5 min, 15 min, 30 min, 1 h, and 2 h after the end of dosing.

[5] = Toxicity of 14-day continuous intravenous infusion in monkeys; type: in vivo
Description: Cynomolgus monkeys received continuous IV infusion over 14 days of Formula I at 5 mg/kg/day, 15 mg/kg/day, or 30 mg/kg/day. The drug was infused intravenously (24 hours/day) into the femoral vein at a dose rate of 2 ml/kg/hour for 14 consecutive days. Blood samples were removed from each monkey on Days 1, 2, 6, 10, and 15 of the treatment period. Monkeys were bled by venipuncture and samples were collected into tubes containing K2EDTA. On Day 1, samples were collected at 2, 6, and 12 hours after initiation of treatment. Additional samples were collected at 30 hours after the start of infusion (Day 2). On Days 6 and 10, samples were collected at approximately 6 hours after the bag changes. At the end of the 14 days of infusion, on Day 15, samples were collected at 1 hour prior to cessation of dose administration, and at 5 min, 30 min, 1 h, 2 h, 4 h, 8 h, and 24 h following cessation of dose administration.

[6] = Toxicity of 14-day continuous intravenous infusion in rats; type: in vivo; conditions: 14-day infusion, all treated and control groups, toxicity was due to the vehicle
Description: as §1
The toxicity was due to the vehicle and was attributed to smaller size of infusion vessels, and concurrent catheter tract infection.

[7] = Population pharmacokinetic analysis (NONMEM), rat; type: in vivo; conditions: Rat (IV+CIV)
Description: (§2) An analysis was performed to derive allometric equations for Formula I pharmacokinetic parameters using Formula I plasma concentration-time data from three species, including mouse, rat, and monkey, and to estimate human pharmacokinetic parameters from those allometric equations.
(§3) Plasma concentrations of Formula I were obtained from mice, rats, and monkeys following intravenous injection or continuous infusion. Formula I pharmacokinetic parameters in mice, rats, and monkeys were estimated using population pharmacokinetic analysis, a function of the software program NONMEM™ (version 5). Typical population pharmacokinetic parameters for Formula I in humans were extrapolated from allometric equations that were derived from pharmacokinetic parameters estimated in the three animal species.
A two-compartment model with a first-order elimination from the central compartment adequately described Formula I plasma concentration-time profiles following intravenous bolus injection (30 mg/kg) in mice and rats, 7-day continuous infusion in rats (50 to 170 mg/kg/day), and 14-day continuous infusion in monkeys (5 to 30 mg/kg/day).

[8] = Allometric extrapolation of population pharmacokinetic parameters to humans; conditions: for half-life: human; for half-life / clearance / Vd: plasma, intravenous; for Vd: read-out: Vss
Description: as §2, §3
Allometric equations for the pharmacokinetic parameters clearance (CL), volume of distribution (V1 and V2), and inter-compartmental clearance (Q) were derived. The population PK parameters of the compound of Formula I for humans were extrapolated from the allometric equations, and the estimated values are shown in Table 6. Simulated Formula I plasma concentration-time profiles in humans are shown in Figure 13 and estimated end of infusion concentrations are provided in Table 7.

[9] = test system: tumor cell lines; assay: In vitro activity against tumor cell lines (average); type: cell-based
[10] = Pharmacokinetics and tissue distribution after bolus IV, IP, SC and PO administration in mice; type: in vivo, female Crl: CD1 mice; conditions: daily bolus administrations of 30 mg/kg (SC) or 20 mg/kg (IP)
[11] = typical population PK parameter
[12] = Human, WT 70 Kg, estimated from allometric equations
[13] = Human, estimated from allometric equations derived from mouse, rat and monkey

In the case of CC(C)=CCC/C(C)=C/CC/C(C)=C/CN1C(=O)c2cccc(O)c2Nc2c(O)cc(O)cc21 [Formula I, 10-farnesyl-4,6,8-trihydroxy-dibenzodiazepin-11-one], the IC50 [1] is reported as 10.9 µM, the “%T/C” value ([2]; bolus SC 30 mg/kg days 1 to 5, 8 to 12 and 15 to 19) is reported as 25.5% and the “%T/C” value ([2]; bolus SC 50 mg/kg every three days x 7) is reported as 14.6%. For the same compound, the antitumor activity ([2]; bolus intravenous treatment (100 mg/kg, 5/2/5/2/5)) was “did not result in activity”, the tolerability finding ([3]; IP bolus dosing) was “some intestinal occlusion” and the tolerability finding ([3]; SC bolus dosing) was “swelling and thickening of the skin”. It also gave an MTD ([3]; IP bolus) of 20 mg/kg, an MTD ([3]; IV bolus) of 200 mg/kg and an MTD ([3]; SC bolus) of 30 mg/kg. For the same compound, the steady-state plasma concentrations ([4]; 14-day CIV at doses of 50 and 75 mg/kg/day, above therapeutic threshold) was > 2 µM, the steady-state plasma concentration ([4]; 25 mg/kg/day) was ~0.8 µM and the Css ([4]; 25 mg/kg/day) was 347 ng/mL. For the same compound, the T½z ([4]; 25 mg/kg/day) was 1.6 h, the steady-state plasma concentration ([4]; 50 mg/kg/day) was ~2.5 µM and the Css ([4]; 50 mg/kg/day) was 1,150 ng/mL. For the same compound, the T½z ([4]; 50 mg/kg/day) was 1.2 h, the steady-state plasma concentration ([4]; 75 mg/kg/day) was ~3.9 µM and the Css ([4]; 75 mg/kg/day) was 1,796 ng/mL. For the same compound, the T½z ([4]; 75 mg/kg/day) was 1.2 h, the plasma concentration ([4]; CIV 50 mg/kg/day, Day 10 (unusually high)) was 1,753 ng/mL and the compound associated toxicity [5] was “no severe compound associated toxicity was observed”. For the same compound, the “degenerative changes in any organs, including the infusion site” value [5] was “No degenerative changes”, the “effect on body weight, ocular condition, electrocardiographic activity and other parameters assessed” value [5] was “no effect” and the “histological observations, reflected clearance of the vehicle used” value [5] was “Diffuse vacuolization of hepatocytes and accumulation of foamy histiocytes (macrophages) in the spleen”. The “side effects (reversible)” value [5] was “inappetance and a moderate degree of regenerative anemia”, the infusion site findings [6] was “necrotization and inflammatory lesions at the site of infusion” and the Q ([7]; WT 0.225 Kg) was 0.016 L/h. The V1 ([7]; WT 0.225 Kg) was 0.028 L, the V2 ([7]; WT 0.225 Kg) was 0.053 L and the Ke [7, 11] was 8.651 h⁻¹. The Q [7, 11] was 1.16 mL/min/kg, the V1 [7, 11] was 0.126 L/kg and the V2 [7, 11] was 0.236 L/kg. For the same compound, the Q [8, 12] was 2.27 L/h, the V1 [8, 12] was 13.9 L and the V2 [8, 12] was 39.2 L. For the same compound, the Ke [8, 13] was 1.192 h⁻¹, the Q [8, 13] was 0.533 mL/min/kg and the V1 [8, 13] was 0.198 L/kg. It also gave a V2 [8, 13] of 0.559 L/kg, a half-life ([8]; estimated from allometric equations derived from mouse, rat and monkey, read-out: t1/2,α (converted)) of 0.509 h and a half-life ([8]; estimated from allometric equations derived from mouse, rat and monkey, read-out: t1/2,β (converted)) of 13.8 h. It also gave a clearance [8, 12] of 275 mL/min, a Vd [8, 12] of 53.1 L and a clearance [8, 13] of 3.93 mL/min/kg. The Vd [8, 13] was 0.757 L/kg, the IC50 [9] was ≥ 1 µM and the sustained plasma concentrations [10] was 1 to 2 µM.
